Laboratory results reported in publication PMC3610872, “Full and Partial Agonists of Thromboxane Prostanoid Receptor Unveil Fine Tuning of Receptor Superactive Conformation and G Protein Activation” (PLoS ONE, 2013).
Residue numbers refer to the chain shown, from its start. Marks after values point to notes of the source that are not given here.

How the values were obtained:
[1] = molecular target: T1, E129V mutant human TP receptor (Homo sapiens, UniProt P21731, E129V); assay: [3H]SQ29,548 radioligand binding (mixed-type and heterologous competition), E129V mutant; conditions: HEK293 cells, E129V, value ±%CV
T1 construct: expressed in transfected cells; host or cells: HEK293
T1 sequence (P21731 1-343 E129V): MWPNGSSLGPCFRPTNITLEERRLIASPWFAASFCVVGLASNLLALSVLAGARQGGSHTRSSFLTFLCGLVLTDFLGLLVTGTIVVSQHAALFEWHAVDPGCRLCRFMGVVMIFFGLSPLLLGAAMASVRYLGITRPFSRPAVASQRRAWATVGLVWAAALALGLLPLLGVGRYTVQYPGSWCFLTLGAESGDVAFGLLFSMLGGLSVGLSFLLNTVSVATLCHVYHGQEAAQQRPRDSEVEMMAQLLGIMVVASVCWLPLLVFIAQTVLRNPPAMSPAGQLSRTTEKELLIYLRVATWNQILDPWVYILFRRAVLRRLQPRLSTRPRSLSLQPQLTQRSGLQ
Experimental: (§1) Receptor expression and functional activity were monitored 48 hours after transfection. […] Heterologous competition studies involved concentrations of the indicated unlabeled ligands extending from 0.1 nM to 30 µM. After 30 min incubation at 25 °C, the reaction was stopped by aspiration of the medium, cells were washed with ice-cold PBS containing 0.2% (w/v) BSA and lysed in 0.5 N NaOH. Radioactivity was measured by liquid scintillation counting. Binding data were analyzed as described in Data and Statistical Analysis. Quantification of the total labeled inositol phosphates (IP) accumulation was performed using a conventional gravity flow column chromatography, as described previously, [19]. Briefly, the day before the assay, cells were labeled with 0,5 µCi of [myo-2-^3H]inositol (17 Ci/mmol) for 18–20 hours in serum-free, inositol-free DMEM containing 20 mM HEPES buffer, pH 7.4, and 0.5% (w/v) Albumax I. The day of the assay, media was replaced with serum-free, inositol-free DMEM containing 25 mM LiCl and cells stimulated for 30 min with the indicated agonists. After removal of the medium, cells were lysed with 10 mM formic acid and lysates were applied onto an anion exchange AG 1X-8 column, formate form, 200–400 mesh. The total IP fraction was then eluted with 2 M ammonium formate/formic acid buffer at pH 5 and radioactivity determined by liquid scintillation counting. Rescue experiments were performed essentially as above, except for a 18 hours incubation step with 1 µΜof SQ29,584 followed by its removal by washing three times with ice-cold PBS containing 1 mM MgCl2 and 0.1 mM CaCl2 before starting the experiment.
(§2) All average results are presented as mean±S.E. When indicated, ANOVA followed by post-hoc test for multiple comparisons was performed. Data from radioligand binding were evaluated by a nonlinear, least-squares curve-fitting procedure using GraphPad Prism version 4, implemented with the n-ligand m-binding site model, as described in the LIGAND computer program. Concentration-response curves were evaluated using Prism 4, which use the four parameters logistic model as described in the ALLFIT program. Parameter errors are all expressed in percentage coefficient of variation (%CV) and calculated by simultaneous analysis of at least two different independent experiments performed in duplicate or triplicate. Parameter comparison has been performed on the base of the F test for extra sum of square principle. All curves shown are computer generated.
(§3) Thus, transfection conditions were adjusted to secure equivalent levels of receptor expression for WT and mutants as previously described, [17], [19]. […] All the experiments were conducted within this range of receptor expression, if not specified differently.

[2] = molecular target: T2, E240V mutant human TP receptor (Homo sapiens, UniProt P21731, E240V); assay: [3H]SQ29,548 radioligand binding (mixed-type), E240V mutant; conditions: HEK293 cells, value ±%CV
T2 construct: expressed in transfected cells; host or cells: HEK293
T2 sequence (P21731 1-343 E240V): T1 sequence (P21731 1-343 E129V) with V129E, E240V
Experimental: as §1, with “Rescue experiments were performed essentially as above, except for a 18 hours incubation step with 1 µΜof SQ29,584 followed by its removal by washing three times with ice-cold PBS containing 1 mM MgCl2 and 0.1 mM CaCl2 before starting the experiment.” left out
as §2, with “Parameter comparison has been performed on the base of the F test for extra sum of square principle. All curves shown are computer generated.” left out

[3] = molecular target: T3, E129/240V double mutant human TP receptor (Homo sapiens, UniProt P21731, E129V/E240V); assay: [3H]SQ29,548 radioligand binding (mixed-type), E129/240V double mutant; conditions: HEK293 cells, no Gαq, before SQ29,548 rescue, value ±%CV
T3 construct: expressed in transfected cells; host or cells: HEK293
T3 sequence (P21731 1-343 E129V/E240V): T1 sequence (P21731 1-343 E129V) with E240V
Experimental: Receptor expression and functional activity were monitored 48 hours after transfection. […] Heterologous competition studies involved concentrations of the indicated unlabeled ligands extending from 0.1 nM to 30 µM. After 30 min incubation at 25 °C, the reaction was stopped by aspiration of the medium, cells were washed with ice-cold PBS containing 0.2% (w/v) BSA and lysed in 0.5 N NaOH. Radioactivity was measured by liquid scintillation counting. Binding data were analyzed as described in Data and Statistical Analysis. Quantification of the total labeled inositol phosphates (IP) accumulation was performed using a conventional gravity flow column chromatography, as described previously, [19]. […] The total IP fraction was then eluted with 2 M ammonium formate/formic acid buffer at pH 5 and radioactivity determined by liquid scintillation counting. […]
All average results are presented as mean±S.E. When indicated, ANOVA followed by post-hoc test for multiple comparisons was performed. Data from radioligand binding were evaluated by a nonlinear, least-squares curve-fitting procedure using GraphPad Prism version 4, implemented with the n-ligand m-binding site model, as described in the LIGAND computer program. Concentration-response curves were evaluated using Prism 4, which use the four parameters logistic model as described in the ALLFIT program. […]

[4] = molecular target: T4, WT human TP receptor (Homo sapiens, UniProt P21731); assay: [3H]SQ29,548 radioligand binding (mixed-type and heterologous competition), WT receptor; conditions: HEK293 cells, value ±%CV
T4 construct: expressed in transfected cells; host or cells: HEK293
T4 sequence (P21731 1-343): T1 sequence (P21731 1-343 E129V) with V129E
Experimental: as §1, §2, §3

Bmax ([1]; Gαq 3x): 0.38±21 pmol/mg prot
Bmax ([1]; Gαq 5x): 0.39±30 pmol/mg prot
Bmax ([1]; no Gαq cotransfection): 0.53±16 pmol/mg prot
Bmax ([2]; Gαq 3x): 0.65±52 pmol/mg prot
Bmax ([2]; Gαq 5x): 0.49±34 pmol/mg prot
Bmax ([2]; no Gαq cotransfection): 0.97±31 pmol/mg prot
Bmax [3]: 0.04±68 ^b pmol/mg prot
Bmax ([4]; Gαq 3x): 0.90±46 pmol/mg prot
Bmax ([4]; Gαq 5x): 0.95±39 pmol/mg prot
Bmax ([4]; no Gαq cotransfection): 0.44±32 pmol/mg prot
Compound: O=C(O)CCC/C=C\C[C@@H]1[C@H](CNNC(=O)Nc2ccccc2)[C@@H]2CC[C@H]1O2 [[^3H]SQ29,548, [5,6-^3H]SQ29,548]
